Data taken from patent US9315522B2, “Antibacterial compounds” (JANSSEN SCIENCES IRELAND UC, priority 2012, dated 2016).
Values after ≈ are worked out from the molar mass of the structure shown. Values joined by “and” are separate entries in the source; they are usually repeats but may differ in a detail not shown here. Equal values may be shown once.

Tests used:
[1] = molecular target: T1, S. aureus ATCC 29213 FabI (Staphylococcus aureus, UniProt Q6GI75); assay: Staphylococcus aureus FabI enzyme inhibition assay; format: biochemical; details: read-out: FabI (300.235) IC50 (converted)
T1 sequence (Q6GI75 1-256): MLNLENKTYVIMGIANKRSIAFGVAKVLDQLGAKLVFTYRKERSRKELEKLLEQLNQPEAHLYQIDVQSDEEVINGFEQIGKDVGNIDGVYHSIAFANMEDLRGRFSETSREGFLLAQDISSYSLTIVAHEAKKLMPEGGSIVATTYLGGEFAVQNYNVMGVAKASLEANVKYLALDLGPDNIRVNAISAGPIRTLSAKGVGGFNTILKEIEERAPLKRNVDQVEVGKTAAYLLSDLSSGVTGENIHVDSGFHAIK
Protocol: Y.1 FabI Enzyme Inhibition: Staphylococcus aureus FabI Enzyme Inhibition Assay
FabI enzyme inhibition assays were carried out in half-area, 384-well microtitre plates. Compounds were evaluated in 40-μl assay mixtures containing 100 mM NaADA, pH 6.5 (ADA=N-[2-acetamido]-2iminodiacetic acid), 250 μM crotonoyl-CoA, 625 μM NADH and 50 μg/ml S. aureus ATCC 29213 FabI. Inhibitors were typically varied over the range of 50 to 0.39 μM. The reaction mixtures were incubated for 30 minutes at room temperature and the reaction was stopped by adding 200 mM Tris buffer (pH 9.0) to create a pH-shift. The consumption of NADH was monitored by measuring the change in absorbance at […]. By comparing sample readings to those of negative (absence of compound) and positive (absence of enzyme) controls, the percent inhibition of enzymatic activity of the compounds was determined A best-fit curve is fitted by a minimum of squares method. From this an IC50-value (expressed in μg/ml), resulting in 50% inhibition of enzymatic activity, was obtained.

S. aureus = assay: Antibacterial susceptibility testing, IC90 determination with 10% human serum (STA + 10% HS); format: cell-based, Staphylococcus aureus; details: Staphylococcus aureus, human serum at final concentration of 10%, read-out: STA + 10% HS (361.169) IC90
Protocol: (§1) The following bacteria were used: Staphylococcus aureus ATCC 29213, methicillin-resistant Staphylococcus aureus (MRSA) ATCC 700788 and Escherichia coli ATCC 35218. The bacteria used in this study were grown overnight in flasks containing 100 ml Mueller-Hinton broth (Difco cat. nr. 0757-17) in sterile de-ionized water, with shaking, at 37° C. Stocks were store at −70° C. until use.
(§2) Bacteria were incubated on a tryptic soy agar plate containing 5% sheep blood (Becton Dickinson cat. nr. 254053) for 18-24 hours at 35° C. in aerobic conditions (first passage). For the second passage, fresh Mueller-Hinton broth is inoculated with 5-10 colonies and grown overnight at 35° C. until turbidity (reaching log-phase) in aerobic conditions is reached. The bacterial suspension is then adjusted to 0.5 McFarland density and further diluted 1:100 in Mueller Hinton broth medium. This is used as inoculum.
(§3) MIC assays were performed by the broth microdilution method in a 96-well format (flat-bottom microtitre plates) with a final volume of 0.1 ml Mueller Hinton broth containing two-fold serial dilutions of compounds and inoculated with 5×10^5 CFU/ml of bacteria (standard inoculum size according to CLSI guidelines). Inhibitors are typically varied over the range of 63 to 0.49 μM. The final DMSO concentration in the assay was 1.25% (maximum tolerable DMSO concentration=6%). In the assays where the effect of human serum on the activity of the compounds against S. aureus was tested, human serum was added at a final concentration of 10%. The plates were incubated at 35° C. for 16-20 hours. At the end of incubation the bacterial growth was quantified fluorometrically. For this, resazurin was added to all wells and the plates were re-incubated. The incubation time is dependent on the type of bacteria. A change in color from blue to pink indicated the growth of bacteria. The fluorescence was read in computer-controlled fluorometer (Fluoroskan Ascent FL, Labsystems) at an excitation wavelength 540 nm and an emission wavelength of 590 nm. The % growth inhibition achieved by the compounds was calculated according to standard methods. The IC90 (expressed in μg/ml) was defined as the 90% inhibitory concentration for bacterial growth. A panel of reference compounds were simultaneously tested for QC approval.
The results are depicted in the table(s) below (STA+10% HS).

[2] = test system: Staphylococcus aureus ATCC 29213; assay: Antibacterial susceptibility testing, IC90 determination (STA); format: cell-based; details: Staphylococcus aureus, ATCC29213, Staphylococcus aureus ATCC 29213, broth microdilution, resazurin; read-out: STA (361.159) IC90
Protocol: as §1, §2
The result(s) are depicted the table below (for STA ATCC 29213).
as §3

[3] = Cytotoxicity MTT assay (HELAM); format: cell-based, Human; details: human, HelaM cells, read-out: HELAM (222.125) CC50
Protocol: Cytotoxicity of the compounds was evaluated using the MTT assay. Human HelaM cells grown in 96-well plates were exposed to serial dilutions of the tested compounds (final volume of 0.2 ml) and incubated for 72 hours at 37° C. and 5% CO2. Inhibitors are typically varied over the range of 25 to 0.8 μM. The final DMSO concentration in the assay is 0.5%. MTT (3-(4,5-Dimethylthiazol-2-yl)-2,5-diphenyltetrazolium bromide, a tetrazole) was added and reduced to purple formazan only in living cells. Solubilization of the formazan crystals was achieved by adding 100 μl 2-propanol. Cell viability was determined by measuring the absorbance of the reduced formazan, giving a purple color, at 540 nm and 690 nm. The absorbance measured at 690 nm was automatically subtracted from the absorbance at 540 nm, to eliminate the effects of non-specific absorption. The percent cytotoxicity achieved by the compounds was calculated according to standard methods. Cytotoxicity is reported as CC50, the concentration that causes a 50% reduction in cell viability.
The results are depicted in the table(s) below (HELAM).

SMILES	IC50 [1]	IC90 (S. aureus)	melting point	IC90 [2]	CC50 at 72 h [3]
COc1cncc(C(=O)Nc2ccc(/C=C/C(=O)N3CC4C=C(c5ccnn5C)CC4C3)cn2)c1 (stereo not shown) [compound 31]	659 nM	0.86 µg/mL	89.36 °C	0.72 µg/mL (≈ 1.53 µM)	> 11.8 µg/mL
COc1cncc(C(=O)Nc2ccc(/C=C/C(=O)N3CC4C=C(c5nccs5)CC4C3)cn2)c1 (stereo not shown) [compound 32]	718 nM	< 0.23 µg/mL	207 °C	< 0.23 µg/mL	> 11.9 µg/mL
COc1cncc(C(=O)Nc2ccc(/C=C/C(=O)N3CC4C=C(c5ccsc5)CC4C3)cn2)c1 (stereo not shown) [compound 33]	1290 nM	< 0.23 µg/mL	205 °C	< 0.23 µg/mL	> 11.9 µg/mL
O=C1Nc2ncc(/C=C/C(=O)N3CC4C=C(c5ccsc5)CC4C3)cc2CO1 (stereo not shown) [compound 35]	839 nM	0.37 µg/mL	> 250 °C	0.16 µg/mL (≈ 0.407 µM)	> 3.93 µg/mL
O=C1COc2cc(/C=C/C(=O)N3CC4C=C(c5ccncc5)CC4C3)cnc2N1 (stereo not shown) [compound 36]	1130 nM	< 0.08 µg/mL	> 260 °C	0.16 µg/mL (≈ 0.412 µM)	> 3.88 µg/mL
O=C1COCc2cc(/C=C/C(=O)N3CC4C=C(c5ccccc5)CC4C3)cnc2N1 (stereo not shown) [compound 39]	~1620 nM	0.35 µg/mL	266.57 °C and 266.6 °C	< 0.19 µg/mL	> 10.1 µg/mL
O=C1COCc2cc(/C=C/C(=O)N3CC4C=C(c5ccsc5)CC4C3)cnc2N1 (stereo not shown) [compound 41]	1030 nM	0.23 µg/mL	152 °C	< 0.2 µg/mL	> 10.2 µg/mL
O=C1COCc2cc(/C=C/C(=O)N3CC4C=C(c5nccs5)CC4C3)cnc2N1 (stereo not shown) [compound 49]	~930 nM	0.24 µg/mL	260.34 °C	0.25 µg/mL (≈ 0.612 µM)	> 10.3 µg/mL
CN1CC(=O)Nc2ncc(/C=C/C(=O)N3CC4C=C(c5ccccc5)CC4C3)cc2C1 (stereo not shown) [compound 50]	965 nM	0.4 µg/mL	202 °C	0.35 µg/mL (≈ 0.844 µM)	> 20.8 µg/mL
O=C1Nc2ncc(/C=C/C(=O)N3CC4C=C(c5ccccc5)CC4C3)cc2CO1 (stereo not shown) [compound 51]	903 nM	0.71 µg/mL	> 250 °C	0.35 µg/mL (≈ 0.903 µM)	> 9.73 µg/mL
O=C1CNCc2cc(/C=C/C(=O)N3CC4C=C(c5ccncc5)CC4C3)cnc2N1 (stereo not shown) [compound 52]	971 nM	0.35 µg/mL	> 260 °C	0.37 µg/mL (≈ 0.922 µM)	> 10.1 µg/mL
O=C1COCc2cc(/C=C/C(=O)N3CC4C=C(c5ccncc5)CC4C3)cnc2N1 (stereo not shown) [compound 54]	1020 nM	0.35 µg/mL	154 °C	0.38 µg/mL (≈ 0.944 µM)	> 10.1 µg/mL
O=C1Nc2ncc(/C=C/C(=O)N3CC4C=C(c5ccncc5)CC4C3)cc2CO1 (stereo not shown) [compound 55]	927 nM	0.71 µg/mL	156 °C	0.76 µg/mL (≈ 1.96 µM)	> 9.76 µg/mL
Cn1nccc1C1=CC2CN(C(=O)/C=C/c3cnc4c(c3)COCC(=O)N4)CC2C1 (stereo not shown) [compound 56]	1180 nM	1.44 µg/mL	149 °C	1.51 µg/mL (≈ 3.72 µM)	> 10.2 µg/mL
Cn1nccc1C1=CC2CN(C(=O)/C=C/c3cnc4c(c3)CNCC(=O)N4)CC2C1 (stereo not shown) [compound 57]	939 nM	1.52 µg/mL	228 °C	1.54 µg/mL (≈ 3.81 µM)	> 10.2 µg/mL
CN1CC(=O)Nc2ncc(/C=C/C(=O)N3C[C@@H]4CN(c5ccccc5)C[C@@H]4C3)cc2C1 [compound 58]	1700 nM	3.13 µg/mL	178.9 to 179.8 °C	3.39 µg/mL (≈ 8.12 µM)	> 10.5 µg/mL
COc1ccccc1N1C[C@H]2CN(C(=O)/C=C/c3cnc4c(c3)CN(C)CC(=O)N4)C[C@H]2C1 [compound 59]	2230 nM	3.17 µg/mL	114 °C	3.39 µg/mL (≈ 7.57 µM)	> 11.2 µg/mL
CC(C)C1Oc2cc(/C=C/C(=O)N3CC4C=C(c5ccccc5)CC4C3)cnc2NC1=O (stereo not shown) [compound 63]	1420 nM	0.36 µg/mL	224.9 °C	< 0.21 µg/mL	> 10.8 µg/mL
CC(C)C1Oc2cc(/C=C/C(=O)N3CC4C=C(c5nccs5)CC4C3)cnc2NC1=O (stereo not shown) [compound 64]	825 nM	< 0.21 µg/mL	223.55 °C	< 0.21 µg/mL	> 11 µg/mL
CC(C)C1Oc2cc(/C=C/C(=O)N3CC4C=C(c5ccncc5)CC4C3)cnc2NC1=O (stereo not shown) [compound 65]	859 nM	< 0.21 µg/mL	113.11 °C	< 0.21 µg/mL	> 10.8 µg/mL
